Test results as given in patent publication US20260325605A1, “INHIBITORS” (Zealand Pharma A/S, priority 2022, published 2026).

Legend:
Kv1.3 = target: T1, Kv1.3 (Homo sapiens, UniProt P22001); assay: Patch clamp assay (QPatch), Kv1.3; assay type: cell-based; details: CHO cells stably expressing human Kv1.3, read-out: Potency IC50, Kv1.3
T1 construct: expressed in transfected cells
Description: Selectivity of Kv1.3 inhibitor peptides for Kv1.3 over other potassium ion channels (Kv1.1, Kv1.2 and Kv1.6) was determined using patch clamp assay.
Chinese Hamster Ovary (CHO) cell lines stably expressing exogenous human α-subunits of each potassium ion channel were grown and passaged under standard culture conditions.
The automated, chip-based planar patch clamp device QPatch® was used to quantitate the ionic currents. All recordings were made in the conventional whole-cell configuration after establishment of gigaohm seals. […] During experiments 0.1% (v/v) BSA was included as a vehicle in all external recording solutions. Currents were elicited from a holding potential of −80 mV using a voltage protocol, which shifted the voltage to 30 mV for 500 ms every 15 s.
Concentration-response relationships were established by cumulatively applying seven escalating concentrations of test sample to an individual cell with a recording period of 2 min per compound application.
The efficacy was determined as the mean charge for the last three sweeps at the end of each concentration application period from the cursor positions. The percent inhibition for each test dose application period was calculated as the reduction in mean cursor value (charge) relative to the cursor value measured at the end of the vehicle period and used to calculate the IC50 from the concentration response curve.

Kv1.1 = target: T2, Kv1.1 (Homo sapiens, UniProt Q09470); assay: Patch clamp assay (QPatch), Kv1.1; assay type: cell-based; details: for IC50: QPatch, CHO cells stably expressing human Kv1.1, read-out: Potency IC50, Kv1.1; for Selectivity Kv1.1/Kv1.3: ratio of IC50 Kv1.1/Kv1.3
T2 construct: expressed in transfected cells

Kv1.2 = target: T3, Kv1.2 (Homo sapiens, UniProt P16389); assay: Patch clamp assay (QPatch), Kv1.2; assay type: cell-based; details: for IC50: QPatch, CHO cells stably expressing human Kv1.2, read-out: Potency IC50, Kv1.2; for Selectivity Kv1.2/Kv1.3: ratio of IC50 Kv1.2/Kv1.3
T3 construct: expressed in transfected cells

Kv1.6 = target: T4, Kv1.6 (Homo sapiens, UniProt P17658); assay: Patch clamp assay (QPatch), Kv1.6; assay type: cell-based; details: for IC50: QPatch, CHO cells stably expressing human Kv1.6, read-out: Potency IC50, Kv1.6; for Selectivity Kv1.6/Kv1.3: ratio of IC50 Kv1.6/Kv1.3
T4 construct: expressed in transfected cells

[1] = system: T-cell activation in rat whole blood; assay: Example 4: IL-17A release in thapsigargin stimulated rat whole blood; assay type: cell-based, rat (Lewis or Sprague-Dawley); details: 24 Hr, at least 2 replicates, unit inferred, read-out: IC50 (inhibition of IL-17A release)
Source text: Rat whole blood was used to assess the potency of Kv1.3 inhibitor peptides on T-cell activation as determined by IL-17A release after stimulation with thapsigargin. Addition of thapsigargin results in activation of a signalling cascade ending up in activation of T cell proliferation and cytokine production where the Kv1.3 ion channel plays a key role, so activity of Kv1.3 inhibitors in primary cells can be measured in this experimental system.
Rat whole blood was obtained from healthy, naïve Lewis or Sprague-Dawley rats that were terminally bleed from the heart using Sodium Heparin blood sampling tubes for collection. Peptides were diluted to 4× final testing concentrations in assay buffer (DMEM+GlutaMAX), GlutaMAX is a medium comprising 3.97 mM L-alanine-L-glutamine (Gibco Cat #61965026) supplemented with 25 mM HEPES buffer, 1 mM Sodium Pyruvate, 100 units/ml Penicillin, 100 μg/ml Streptomycin and 0.05% Casein from bovine milk (Sigma-Aldrich)) and 25 μl was added to wells of a 96 well plate. Then 50 μl whole rat blood was added and incubated for minimum 5 minutes at room temperature to allow compound binding. Then 25 μl 40 μM thapsigargin diluted in assay buffer was added to all wells of the assay plates to activate the cells, followed by incubation for 24 Hr at 37° C./5% CO2 in a humidified box. The assay plates were centrifuged for 10 min at 300 g at 4° C. and the supernatants were transferred to new plates. The concentrations of IL-17A released to the supernatants were measured using a Rat IL-17A ELISA Kit (Abcam Cat #ab214028) as recommended by the manufacturer. Samples were diluted 2.5-fold by transferring 20 μl of the supernatants to wells on ELISA plates containing 30 μl buffer 75BS from the detection kit.
Data from peptides eliciting an inhibition of IL-17A were normalised relative to full thapsigargin activation (no inhibitor added) and no activation controls (addition of assay buffer instead of thapsigargin) to calculate the IC50 from the concentration response curve.
Results are shown in Table 5, expressed as IC50, with standard deviation (IC50_SD). All values are derived from at least 2 replicates. The biological effects ex vivo show a correlation with the potency of the peptides.

T3 sequence (P16389 whole entry): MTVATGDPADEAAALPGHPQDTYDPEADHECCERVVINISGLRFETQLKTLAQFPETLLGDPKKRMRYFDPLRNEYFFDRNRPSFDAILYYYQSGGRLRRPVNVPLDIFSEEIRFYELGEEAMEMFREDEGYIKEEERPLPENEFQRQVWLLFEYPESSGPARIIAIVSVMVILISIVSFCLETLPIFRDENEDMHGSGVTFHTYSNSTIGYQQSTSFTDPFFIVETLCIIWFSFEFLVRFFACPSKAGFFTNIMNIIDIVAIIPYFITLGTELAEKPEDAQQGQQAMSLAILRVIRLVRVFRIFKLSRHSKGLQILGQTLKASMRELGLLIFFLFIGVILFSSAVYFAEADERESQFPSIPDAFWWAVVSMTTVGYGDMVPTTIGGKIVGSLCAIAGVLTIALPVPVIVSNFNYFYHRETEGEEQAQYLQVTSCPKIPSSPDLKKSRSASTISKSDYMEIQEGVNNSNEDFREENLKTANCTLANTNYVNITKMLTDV
T2 sequence (Q09470 whole entry): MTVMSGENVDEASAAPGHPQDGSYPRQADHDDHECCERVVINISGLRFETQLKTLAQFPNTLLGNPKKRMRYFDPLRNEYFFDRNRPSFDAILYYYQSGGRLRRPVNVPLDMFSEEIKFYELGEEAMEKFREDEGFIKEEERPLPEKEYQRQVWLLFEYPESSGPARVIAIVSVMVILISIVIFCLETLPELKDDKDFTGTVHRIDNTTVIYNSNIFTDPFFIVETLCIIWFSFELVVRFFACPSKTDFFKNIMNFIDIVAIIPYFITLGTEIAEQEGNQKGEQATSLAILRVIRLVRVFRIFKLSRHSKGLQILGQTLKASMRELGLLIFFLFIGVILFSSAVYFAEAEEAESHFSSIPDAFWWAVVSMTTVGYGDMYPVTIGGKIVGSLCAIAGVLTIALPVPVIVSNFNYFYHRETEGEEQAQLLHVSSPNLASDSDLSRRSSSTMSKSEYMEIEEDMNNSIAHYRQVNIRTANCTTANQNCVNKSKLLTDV
T4 sequence (P17658 whole entry): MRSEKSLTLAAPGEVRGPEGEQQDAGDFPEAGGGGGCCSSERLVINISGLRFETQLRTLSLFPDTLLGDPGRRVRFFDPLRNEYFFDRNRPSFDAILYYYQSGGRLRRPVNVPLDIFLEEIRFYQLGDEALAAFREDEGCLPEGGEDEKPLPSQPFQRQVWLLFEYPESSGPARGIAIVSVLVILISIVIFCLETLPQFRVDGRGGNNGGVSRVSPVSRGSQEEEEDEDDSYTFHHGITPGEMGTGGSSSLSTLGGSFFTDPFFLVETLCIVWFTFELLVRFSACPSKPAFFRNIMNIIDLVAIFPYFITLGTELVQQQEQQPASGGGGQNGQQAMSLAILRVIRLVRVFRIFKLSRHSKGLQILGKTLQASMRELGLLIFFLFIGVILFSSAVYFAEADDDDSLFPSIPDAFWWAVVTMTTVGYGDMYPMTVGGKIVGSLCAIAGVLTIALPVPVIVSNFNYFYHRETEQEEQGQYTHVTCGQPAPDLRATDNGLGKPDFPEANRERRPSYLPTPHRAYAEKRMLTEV
T1 sequence (P22001 whole entry): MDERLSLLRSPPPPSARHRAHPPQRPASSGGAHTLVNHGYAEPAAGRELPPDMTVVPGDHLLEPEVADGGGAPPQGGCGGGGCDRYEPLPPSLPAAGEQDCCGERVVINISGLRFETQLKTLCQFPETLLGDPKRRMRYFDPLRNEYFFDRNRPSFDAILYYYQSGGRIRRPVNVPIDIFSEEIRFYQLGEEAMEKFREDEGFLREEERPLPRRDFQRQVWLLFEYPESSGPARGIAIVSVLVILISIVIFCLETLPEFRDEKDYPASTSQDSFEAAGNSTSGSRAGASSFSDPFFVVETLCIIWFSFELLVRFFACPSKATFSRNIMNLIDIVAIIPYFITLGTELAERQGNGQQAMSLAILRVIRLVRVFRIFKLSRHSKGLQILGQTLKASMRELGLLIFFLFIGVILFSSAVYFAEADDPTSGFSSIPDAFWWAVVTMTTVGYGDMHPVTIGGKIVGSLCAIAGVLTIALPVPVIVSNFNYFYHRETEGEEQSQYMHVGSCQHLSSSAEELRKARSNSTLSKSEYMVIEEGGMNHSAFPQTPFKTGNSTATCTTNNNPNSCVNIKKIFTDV

| Substance | IC50 (Kv1.3) | IC50 (Kv1.1) | Selectivity Kv1.1/Kv1.3 (Kv1.1) | IC50 (Kv1.2) | Selectivity Kv1.2/Kv1.3 (Kv1.2) | IC50 (Kv1.6) | Selectivity Kv1.6/Kv1.3 (Kv1.6) | IC50 [1] |
| --- | --- | --- | --- | --- | --- | --- | --- | --- |
| Ac-SKC(1)SASVEC(2)KQKC(3)LKAIGSIFGKC(1)[Nle]NKKC(2)KC(3)YPR-NH2 [Peptide 113] | 1 nM | > 3000 nM | >3000 | 196 nM | 196 | 1450 nM | 1451 | 0.36 nM |
| H-C(1)SASVEC(2)KQKC(3)LKAIGSIFGKC(1)MNKKC(2)KC(3)YPR-OH [Peptide 124] | 2.09 nM | > 3000 nM | >1400 | 1830 nM | 878 | > 3000 nM | >1400 | 1.9 nM |
| H-NMDMRC(1)SASREC(2)KQKC(3)LKAIGSIFGKC(1)MNKKC(2)KC(3)YPR-NH2 [Peptide 28] | 0.12 nM | > 3000 nM | >25900 | 11 nM | 94 | 206 nM | 1778 | 0.68 nM |
| H-NMDMRC(1)SASVEC(2)KEKC(3)LKAIGSIFGKC(1)MNKKC(2)KC(3)YPR-NH2 [Peptide 32] | 0.28 nM | > 3000 nM | >10800 | 179 nM | 648 | > 3000 nM | >10800 | 0.86 nM |
| H-NMDMRC(1)SASVEC(2)KQKC(3)KKAIGSIFGKC(1)MNKKC(2)KC(3)YPR-NH2 [Peptide 20] | 0.22 nM | > 3000 nM | >13500 | 45 nM | 202 | 435 nM | 1955 | 0.56 nM |
| H-NMDMRC(1)SASVEC(2)KQKC(3)LKAIESIFGKC(1)MNKKC(2)KC(3)YPR-NH2 [Peptide 23] | 0.29 nM | > 3000 nM | >10200 | 181 nM | 615 | > 3000 nM | >10200 | 2.8 nM |
| H-NMDMRC(1)SASVEC(2)KQKC(3)LKAIGSIFGKC(1)MNGKC(2)KC(3)YPR-NH2 [Peptide 37] | 0.31 nM | > 3000 nM | >9700 | 439 nM | 1422 | > 3000 nM | >9700 | 1.2 nM |
| H-NMDMRC(1)SASVEC(2)KQKC(3)LKAIGSIFGKC(1)MNKKC(2)HC(3)YPR-NH2 [Peptide 38] | 0.19 nM | > 3000 nM | >16100 | 338 nM | 1816 | > 3000 nM | >16100 | 0.77 nM |
| H-NMDMRC(1)SASVEC(2)KQKC(3)LKAIGSKFGKC(1)MNKKC(2)KC(3)YPR-NH2 [Peptide 35] | 0.42 nM | > 3000 nM | >7100 | 100 nM | 237 | 207 nM | 490 | 2.1 nM |
| H-NMDMRC(1)SASVEC(2)KQKC(3)LKAIRSIFGKC(1)MNKKC(2)KC(3)YPR-NH2 [Peptide 22] | 0.22 nM | > 3000 nM | >13700 | 57 nM | 259 | 626 nM | 2851 | 0.82 nM |
| H-NMDMRC(1)SASVEC(2)KQLC(3)LKAIGSIFGKC(1)MNKKC(2)KC(3)YPR-NH2 [Peptide 19] | 0.24 nM | > 3000 nM | >12700 | 256 nM | 1080 | > 3000 nM | >12700 | 3.2 nM |
| H-NMDMRC(1)SASVEC(2)LQKC(3)LKAIGSIFGKC(1)MNKKC(2)KC(3)YPR-NH2 [Peptide 30] | 0.4 nM | > 3000 nM | >7400 | 874 nM | 2163 | > 3000 nM | >7400 | 0.76 nM |
| H-NMDMRC(1)SASVQC(2)KQKC(3)LKAIGSIFGKC(1)MNKKC(2)KC(3)YPR-NH2 [Peptide 29] | 0.2 nM | > 3000 nM | >15200 | 16 nM | 83 | 252 nM | 1272 | 0.53 nM |
| H-NMDMRC(1)SISVEC(2)KQKC(3)LKAIGSIFGKC(1)MNKKC(2)KC(3)YPR-NH2 [Peptide 27] | 0.26 nM | > 3000 nM | >11800 | 43 nM | 169 | > 3000 nM | >11800 | 0.61 nM |
| H-N[Nle]D[Nle]RC(1)RASVEC(2)KQKC(3)LKAIGSIFGKC(1)[Nle]NKKC(2)KC(3)YPR-NH2 [Peptide 43] | 0.16 nM | > 3000 nM | >18600 | 109 nM | 674 | 316 nM | 1954 | 0.91 nM |
| H-N[Nle]D[Nle]RC(1)SASKEC(2)KQKC(3)LKAIGSIFGKC(1)[Nle]NKKC(2)KC(3)YPR-NH2 [Peptide 64] | 0.31 nM | > 3000 nM | >9600 | 184 nM | 587 | 1230 nM | 3929 | 0.68 nM |
| H-N[Nle]D[Nle]RC(1)SASVEC(2)KKKC(3)LKAIGSIFGKC(1)[Nle]NKKC(2)KC(3)YPR-NH2 [Peptide 46] | 0.75 nM | > 3000 nM | >4000 | 257 nM | 343 | > 3000 nM | >4000 | 1.4 nM |
